Measurements published in patent US9822099B2, “Triazole derivatives” (priority 2013, dated 2017).
Read-outs that look alike come from different tables or passages of the source. Marks after values point to notes of the source that are not given here.

Columns and labels:
[1] = system: Puccinia recondita; test: Example B: in vivo preventive test on Puccinia recondita (brown rust on wheat); details: 500 ppm of active ingredient; wheat plants, preventive spray; evaluated 11 days after inoculation
Experimental: (§1) The young plants of wheat are treated by spraying the active ingredient prepared as described above. Control plants are treated only with an aqueous solution of acetone/Dimethyl sulfoxide/Tween®. After 24 hours, the plants are contaminated by spraying the leaves with an aqueous suspension of Puccinia recondita spores.

[2] = system: Septoria tritici; test: Example D: in vivo preventive test on Septoria tritici (leaf spot on wheat); details: 500 ppm of active ingredient; wheat plants, preventive spray; evaluated 24 days after inoculation
Experimental: as §1, with “Septoria tritici” for “Puccinia recondita”

[3] = system: Fusarium graminearum; type: in vivo; details: 500 ppm of active ingredient; barley, preventive; evaluated 5 days after inoculation
[4] = system: Blumeria graminis f. sp. hordei; test: Example G: Blumeria test (barley)/preventive; type: in vivo; details: 500 ppm of active ingredient, preventive, evaluated 7 days after inoculation
Experimental: (§2) Solvent: 49 parts by weight of N,N-dimethylacetamide Emulsifier: 1 part by weight of alkylaryl polyglycol ether To produce a suitable preparation of active compound, 1 part by weight of active compound or active compound combination is mixed with the stated amounts of solvent and emulsifier, and the concentrate is diluted with water to the desired concentration. To test for preventive activity, young plants are sprayed with the preparation of active compound or active compound combination at the stated rate of application. After the spray coating has been dried, the plants are dusted with spores of Blumeria graminis f. sp. hordei.

[5] = system: Sphaerotheca fuliginea; test: Example E: in vivo preventive test on Sphaerotheca fuliginea (powdery mildew on cucurbits); details: gherkin plants, preventive spray, evaluated 15 days after inoculation
Experimental: as §1, with “gherkin” for “wheat”, “Sphaerotheca fuliginea” for “Puccinia recondita”

[6] = system: Pyrenophora teres; test: Example C: in vivo preventive test on Pyrenophora teres (net blotch on barley); details: 500 ppm of active ingredient; barley plants, preventive spray; evaluated 14 days after inoculation
Experimental: as §1, with “barley” for “wheat”, “Pyrenophora teres” for “Puccinia recondita”

[7] = system: Uromyces appendiculatus; test: Example F: in vivo preventive test on Uromyces appendiculatus (bean rust); details: bean plants, preventive spray, evaluated 11 days after inoculation
Experimental: as §1, with “bean” for “wheat”, “Uromyces appendiculatus” for “Puccinia recondita”

[8] = system: Leptosphaeria nodorum; test: Example K: Leptosphaeria nodorum test (wheat)/preventive; type: in vivo; details: 500 ppm of active ingredient, preventive, evaluated 8 days after inoculation
Experimental: as §2, with “sprayed” for “dusted”, “a spore suspension” for “spores”, “Leptosphaeria nodorum.” for “Blumeria graminis f. sp. hordei.”

[9] = system: Fusarium nivale (var. majus); test: Example J: Fusarium nivale (var. majus)-test (wheat)/preventive; type: in vivo; details: 500 ppm of active ingredient, preventive, evaluated 5 days after inoculation
Experimental: Solvent: 49 parts by weight of N,N-dimethylacetamide
Emulsifier: 1 part by weight of alkylaryl polyglycol ether
To produce a suitable preparation of active compound, 1 part by weight of active compound or active compound combination is mixed with the stated amounts of solvent and emulsifier, and the concentrate is diluted with water to the desired concentration.
To test for preventive activity, young plants are sprayed with the preparation of active compound or active compound combination at the stated rate of application.
After the spray coating has been dried, the plants are slightly injured by using a sandblast and afterwards they are sprayed with a conidia suspension of Fusarium nivale (var. majus).
The plants are placed in the greenhouse under a translucent incubation cabinet at a temperature of approximately 10° C. and a relative atmospheric humidity of approximately 100%.
The test is evaluated 5 days after the inoculation. 0% means an efficacy which corresponds to that of the untreated control, while an efficacy of 100% means that no disease is observed.

[10] = system: Botrytis cinerea; test: Example A: in vivo preventive test on Botrytis cinerea (grey mould); details: gherkin plants, preventive spray, evaluated 4 to 5 days after inoculation
Experimental: as §1, with “gherkin” for “wheat”, “Botrytis cinerea” for “Puccinia recondita”

[11] = system: Phakopsora pachyrhizi; test: Example L: Phakopsora test (soybeans)/preventive; type: in vivo; details: 10 ppm of active ingredient, preventive, evaluated 7 days after inoculation
[12] = system: Pyricularia oryzae; type: in vivo; details: 500 ppm of active ingredient; rice, preventive; evaluated 8 days after inoculation

SMILES	LogP (pH 2.7)	Eff. % [1]	Eff. % [2]	Eff. % [3]	Eff. % [4]	Eff. % ([5]; 500 ppm of active ingredient)	Eff. % [6]	Eff. % ([7]; 500 ppm of active ingredient)	Eff. % [8]	Eff. % [9]	Eff. % ([10]; 100 ppm of active ingredient)	LogP (pH 7.8)	Eff. % ([10]; 500 ppm of active ingredient)	Eff. % [11]	Eff. % [12]	Eff. % ([5]; 100 ppm of active ingredient)	Eff. % ([7]; 100 ppm of active ingredient)
CC(CF)(CF)C(O)(Cc1ccnc(Cl)c1)Cn1cncn1 (centres unmarked) [Example I-36]	1.66^[a]	97%	100%	94%	100%	100%	88%	100%	–	–	–	–	–	–	–	–	–
OC(Cc1ccnc(Cl)c1)(Cn1cncn1)C1(F)CC1 (centres unmarked) [Example I-33]	1.44^[a]	93%	100%	100%	100%	100%	75%	100%	86%	93%	94%	–	–	–	–	–	–
CC(C)(CCl)C(O)(Cc1ccncc1Cl)Cn1cncn1 (racemic) [Example I-90]	1.76^[a]	–	78%	–	–	100%	–	–	–	–	–	1.96^[b];	100%	–	–	–	–
OC(Cc1cc(Cl)ncc1F)(Cn1cncn1)C1(Cl)CC1 (centres unmarked) [Example I-40]	2.06^[a]	97%	100%	100%	100%	100%	100%	100%	100%	86%	–	–	97%	73%	–	–	–
OC(Cc1cncc(Oc2ccc(Cl)cc2)n1)(Cn1cncn1)C1(Cl)CC1 (centres unmarked) [Example I-56]	2.88^[a]	86%	92%	–	–	100%	88%	96%	–	–	–	–	–	–	–	–	–
CC(C)(Oc1ccc(F)cc1)C(O)(Cc1ccncc1Cl)Cn1cncn1 (racemic) [Example I-91]	2.48^[a]	89%	100%	–	–	98%	–	97%	–	–	–	2.60^[b];	95%	–	–	–	–
CC(C)(Oc1ccc(Cl)cc1)C(O)(Cc1ccncc1Cl)Cn1cncn1 (racemic) [Example I-70]	2.84^[a]	94%	100%	–	100%	100%	–	99%	89%	88%	–	–	–	–	–	–	–
OC(Cc1cc(F)ncc1Cl)(Cn1cncn1)C1(Cl)CC1 (racemic) [Example I-89]	2.30^[a]	100%	100%	–	–	100%	100%	100%	–	–	–	–	100%	–	–	–	–
OC(Cc1ccc(Cl)cn1)(Cn1cncn1)C1(Cl)CC1 (racemic) [Example I-67]	2.23^[a]	98%	100%	–	–	98%	86%	100%	–	–	–	–	99%	–	–	–	–
OC(Cc1cc(Cl)cnc1Cl)(Cn1cncn1)C1(Cl)CC1 (racemic) [Example I-83]	2.53^[a]	100%	100%	–	–	100%	88%	100%	–	–	–	–	100%	–	–	–	–
OC(Cc1ccnc2ccccc12)(Cn1cncn1)C1(Cl)CC1 (centres unmarked) [Example I-27]	1.00^[a]	–	–	100%	100%	–	–	–	–	93%	98%	–	–	–	89%	100%	98%
